≈ marks a conversion by molar mass, not a printed value.

Assay [1] deals with AqSynRMH69 strain. As to the kind of experiment: In vitro test of minimal inhibitory concentration (MIC) of antibiotics. The class given is cell-based, Lactobacillus reuteri. To be noted: for MIC, LSM: LAB susceptibility test medium pH 6.7, unit assumed; for Category: MIC compared with EFSA cut-off. The procedure:
The evaluated antibiotics may be the following: Ampicillin, Vancomicin, Gentamicin, Kanamycin, Streptomycin, Eritromycin, Clindamycin, Tetracyclin and Chloranphenicol. An in vitro test of minimal inhibitory concentration (MIC) aimed to evaluate antibiotic resistances was performed for the above strains (AqSynJ59 and […]69). The evaluated antibiotics were the following: Ampicillin, Vancomicin, Gentamicin, Kanamycin, Streptomycin, Clindamycin, Tetracyclin and Chloranphenicol. The microbiological cut-off values that were used for evaluating the antibiotic resistances of the strains of the present invention are the ones defined in the “Guidance on the assessment of bacterial susceptibility to antimicrobials of human and veterinary importance”, EFSA Panel on Additives and Products or Substances used in Animal Feed ([…]), European Food Safety Authority (EFSA), Parma, Italy.

Assay [2] concerns AqSynRMH69 strain. To be noted: cut-off used for AqSynRMH69 (Lactobacillus reuteri); cited from earlier work.
In assay [3] the test system is AqSynJ59 strain. To be noted: cut-off used for AqSynJ59 (Lactobacillus plantarum); cited from earlier work.
Assay [4] deals with AqSynJ59 strain. As to the kind of experiment: In vitro test of minimal inhibitory concentration (MIC) of antibiotics. Format: cell-based, Lactobacillus plantarum. To be noted: for MIC, LSM: LAB susceptibility test medium pH 6.7, unit assumed; for Category: MIC compared with EFSA cut-off. The procedure:
An in vitro test of minimal inhibitory concentration (MIC) aimed to evaluate antibiotic resistances was performed for the above strains (AqSynJ59 and […]69). […] The microbiological cut-off values that were used for evaluating the antibiotic resistances of the strains of the present invention are the ones defined in the “Guidance on the assessment of bacterial susceptibility to antimicrobials of human and veterinary importance”, EFSA Panel on Additives and Products or Substances used in Animal Feed ([…]), European Food Safety Authority (EFSA), Parma, Italy.

With `CC1(C)S[C@@H]2[C@H](NC(=O)[C@H](N)c3ccccc3)C(=O)N2[C@H]1C(=O)O` [Ampicillin], in the assay on AqSynRMH69 strain [1], the MIC, LSM is 0.25 µg/mL (≈ 0.715 µM) and the Category result is recorded as “S”. The “EFSA (2012) values (microbiological cut-off)” value in the assay with AqSynRMH69 strain [2] was 2. The “EFSA (2012) values (microbiological cut-off)” value in the assay with AqSynJ59 strain [3] is 2.
In the case of `O=C(N[C@H](CO)[C@H](O)c1ccc([N+](=O)[O-])cc1)C(Cl)Cl` [Chloramphenicol], the MIC, LSM in the assay with AqSynRMH69 strain [1] and with AqSynJ59 strain [4] was 2 µg/mL (≈ 6.19 µM) each time. Moreover, the Category entry with AqSynRMH69 strain [1] and in the assay on AqSynJ59 strain [4] was “S” in each case. Also, the “EFSA (2012) values (microbiological cut-off)” value in the assay with AqSynRMH69 strain [2] is recorded as 4; with AqSynJ59 strain [3], 8.
With `CCC[C@@H]1C[C@@H](C(=O)N[C@@H]([C@H]2O[C@H](SC)[C@H](O)[C@@H](O)[C@H]2O)[C@H](C)Cl)N(C)C1` [Clindamycin], in the assay on AqSynRMH69 strain [1], the MIC, LSM is 0.125 µg/mL (≈ 0.294 µM) and the Category result is on record as “S”. Besides, in the assay with AqSynJ59 strain [4], the MIC, LSM came to 0.125 µg/mL (≈ 0.294 µM) and the Category result is “S”.
On to `NC[C@H]1O[C@H](O[C@H]2[C@H](O)[C@@H](O[C@H]3O[C@H](CO)[C@@H](O)[C@H](N)[C@H]3O)[C@H](N)C[C@@H]2N)[C@H](O)[C@@H](O)[C@@H]1O` [Kanamycin], for which, in the assay with AqSynRMH69 strain [1], the MIC, LSM came out at 64 µg/mL (≈ 132 µM) and the Category result was “S”. In the assay on AqSynJ59 strain [4], the MIC, LSM was 64 µg/mL (≈ 132 µM) and the Category result was “S”.
Regarding `[H]/N=C(/N)N[C@H]1[C@H](O)[C@@H](O)[C@H](O[C@@H]2O[C@@H](C)[C@](O)(C=O)[C@H]2O[C@@H]2O[C@@H](CO)[C@H](O)[C@@H](O)[C@@H]2NC)[C@@H](N/C(N)=N\[H])[C@@H]1O` [Streptomycin], in the assay with AqSynRMH69 strain [1], the MIC, LSM stood at 32 µg/mL (≈ 55 µM) and the Category result is recorded as “S”. The MIC, LSM in the assay with AqSynJ59 strain [4] worked out at 32 µg/mL (≈ 55 µM). In addition, the “EFSA (2012) values (microbiological cut-off)” value in the assay with AqSynRMH69 strain [2] is 64.
In the case of `CN(C)[C@@H]1C(O)=C(C(N)=O)C(=O)[C@@]2(O)C(O)=C3C(=O)c4c(O)cccc4[C@@](C)(O)[C@H]3C[C@@H]12` [Tetracycline], the MIC, LSM with AqSynRMH69 strain [1] and against AqSynJ59 strain [4] was 4 µg/mL (≈ 9 µM) throughout. Also, the Category result in the assay on AqSynRMH69 strain [1] and with AqSynJ59 strain [4] was “S” throughout.
Regarding `CN[C@H](CC(C)C)C(=O)N[C@H]1C(=O)N[C@@H](CC(N)=O)C(=O)N[C@H]2C(=O)N[C@H]3C(=O)N[C@H](C(=O)N[C@H](C(=O)O)c4cc(O)cc(O)c4-c4cc3ccc4O)[C@H](O)c3ccc(c(Cl)c3)Oc3cc2cc(c3O[C@@H]2O[C@H](CO)[C@@H](O)[C@H](O)[C@H]2O[C@H]2C[C@](C)(N)[C@H](O)[C@H](C)O2)Oc2ccc(cc2Cl)[C@H]1O` [Vancomycin], in the assay on AqSynRMH69 strain [1], the MIC, LSM turned out to be 512 µg/mL (≈ 353 µM) and the Category result is recorded as “R”. In addition, the MIC, LSM with AqSynJ59 strain [4] worked out at 512 µg/mL (≈ 353 µM).
Regarding Gentamicin, the MIC, LSM against AqSynRMH69 strain [1] came out at 2 µg/mL; with AqSynJ59 strain [4] it was 1 µg/mL. Also, the Category entry in the assay on AqSynRMH69 strain [1] and with AqSynJ59 strain [4] was “S” in each case. Besides, the “EFSA (2012) values (microbiological cut-off)” value in the assay with AqSynRMH69 strain [2] is 8; in the assay with AqSynJ59 strain [3], 16.
